{"source": "patent US7220875B2", "about": "“Amino acid derived prodrugs of propofol, compositions and uses thereof” (priority 2003, dated 2007)", "key": {"[1]": {"test": "Caco-2 homogenate S9 stability", "format": "in vitro ADME", "conditions": "Caco-2 S9 (0.5 mg protein per mL), prodrug 5 μM, 37° C.", "description": "(§1) The stability of propofol prodrugs were evaluated in one or more in vitro systems using a variety of tissue preparations following methods known in the art. Tissues were obtained from commercial sources (e.g., Pel-Freez Biologicals, Rogers, Ark., or GenTest Corporation, Woburn, Mass.). Experimental conditions used for the in vitro studies are described in Table 1 below. Each preparation was incubated with test compound at 37° C. for one hour. Aliquots (50 μL) were removed at 0, 30, and 60 min and quenched with 0.1% trifluoroacetic acid in acetonitrile. Samples were then centrifuged and analyzed by LC/MS/MS (see Examples 59 and 60 below for method details). Stability of drug conjugates towards specific enzymes (e.g., peptidases, etc.) were also assessed in vitro by incubation with the purified enzyme:\nCaco-2 Homogenate S9 Stability: Caco-2 cells were grown for 21 days prior to harvesting. Culture medium was removed and cell monolayers were rinsed and scraped off into ice-cold 10 mM sodium phosphate/0.15 M potassium chloride, pH 7.4. Cells were lysed by sonication at 4° C. using a probe sonicator. Lysed cells were then transferred into 1.5 mL centrifuge vials and centrifuged at 9000 g for 20 min at 4° C. The resulting supernatant (Caco-2 cell homogenate S9 fraction) was aliquoted into 0.5 mL vials and stored at −80° C. until used.\nFor stability studies, prodrug (5 μM) was incubated in Caco-2 homogenate S9 fraction (0.5 mg protein per mL) for 60 min at 37° C. Concentrations of intact prodrug and released propofol were determined at zero time and 60 minutes using LC/MS/MS."}, "[2]": {"test": "Enzymatic cleavage of prodrugs in vitro, human plasma", "format": "in vitro ADME", "conditions": "substrate 2.0 μM, 37° C.", "description": "as §1, with “enzyme: […]” for “enzyme:”"}, "[3]": {"test": "Enzymatic cleavage of prodrugs in vitro, rat plasma", "format": "in vitro ADME", "conditions": "substrate 2.0 μM, 37° C.", "description": "as §1, with “enzyme: […]” for “enzyme:”"}, "[4]": {"system": "pancreatin", "test": "Pancreatin stability", "format": "in vitro ADME, porcine", "conditions": "1% (w/v) pancreatin, pH 7.5, conjugate 5 μM, 37° C.", "description": "as §1\nPancreatin Stability: Stability studies were conducted by incubating conjugate (5 μM) with 1% (w/v) pancreatin (Sigma, P-1625, from porcine pancreas) in 0.025 M Tris buffer containing 0.5 M NaCl (pH 7.5) at 37° C. for 60 min. The reaction was stopped by addition of 2 volumes of methanol. After centrifugation at 14,000 rpm for 10 min, the supernatant was removed and analyzed by LC/MS/MS."}, "[5]": {"test": "Enzymatic cleavage of prodrugs in vitro, human liver S9", "format": "in vitro ADME", "conditions": "Human Liver S9 (0.5 mg/mL), substrate 2.0 μM, NADPH, 37° C.", "description": "as §1, with “enzyme: […]” for “enzyme:”"}, "[6]": {"test": "Enzymatic cleavage of prodrugs in vitro, rat liver S9", "format": "in vitro ADME", "conditions": "Rat Liver S9 (0.5 mg/mL), substrate 2.0 μM, NADPH, 37° C.", "description": "as §1, with “enzyme: […]” for “enzyme:”"}, "[7]": {"test": "in vivo", "conditions": "male, Sprague-Dawley, rat, plasma, oral, 25 mg per kg body weight", "procedure": "Propofol was administered as an intravenous bolus injection or by oral gavage to groups of four to six adult male Sprague-Dawley rats (weight approx 250 g) as solutions in PEG400, at doses of 10 mg per kg body weight (I.V.) or 25 mg per kg body weight (oral). Animals were fasted overnight before the study and for 4 hours post-dosing. Blood samples (1.0 mL) were obtained via a jugular vein cannula at intervals over 24 hours after oral dosing. Blood was quenched immediately using acetonitrile with 1% formic acid and then was frozen at −80° C. until analyzed.\nConcentrations of propofol in plasma were determined using an API 4000 LC/MS/MS instrument equipped with an Agilent 1100 binary pump and an Agilent autosampler. The column was a Phenomenex Hydro-RP 4.6*50 mm column operating at room temperature. The mobile phases were 2 mM aqueous ammonium acetate (A) and 95% acetonitrile with 5 mM ammonium acetate (B). The gradient condition was: 5% B for 1 min, increasing to 90% B in 2.5 min and maintained for 2 min. 20 μL of sample was injected. A Turbo-IonSpray source was used, and propofol was detected in negative ion mode in Q1 at m/z=177. The peaks were integrated using Analyst 1.2 quantitation software."}, "[8]": {"conditions": "rats; oral dosing; cited from earlier work"}}, "data": [{"compound": "CC(C)c1cccc(C(C)C)c1OC(=O)CC[C@H](N)C(=O)N[C@@H](C)C(=O)O", "note": "[Compound 138, H-Glu(OPropofol)-Ala-OH]", "values": [{"measurement": "% of Propofol Released from Propofol Prodrugs after 60 min.", "setting": "[1]", "result": 3, "unit": "%"}, {"measurement": "% of Propofol Released from Propofol Prodrugs after 60 min.", "setting": "[2]", "result": 44, "unit": "%"}, {"measurement": "% of Propofol Released from Propofol Prodrugs after 60 min.", "setting": "[3]", "result": 50, "unit": "%"}, {"measurement": "% of Propofol Released from Propofol Prodrugs after 60 min.", "setting": "[4]", "result": 9, "unit": "%"}, {"measurement": "% of Propofol Released from Propofol Prodrugs after 60 min.", "setting": "[5]", "result": 0, "unit": "%"}, {"measurement": "% of Propofol Released from Propofol Prodrugs after 60 min.", "setting": "[6]", "result": 0, "unit": "%"}]}, {"compound": "CC(C)c1cccc(C(C)C)c1OC(=O)OC[C@H](NC(=O)[C@H](C)N)C(=O)O", "note": "[Compound 161, H-Ala-Ser(β-OC(O)OPropofol)-OH]", "values": [{"measurement": "% of Propofol Released from Propofol Prodrugs after 60 min.", "setting": "[1]", "result": 20, "unit": "%"}, {"measurement": "% of Propofol Released from Propofol Prodrugs after 60 min.", "setting": "[2]", "result": 2, "unit": "%"}, {"measurement": "% of Propofol Released from Propofol Prodrugs after 60 min.", "setting": "[3]", "result": 30, "unit": "%"}, {"measurement": "% of Propofol Released from Propofol Prodrugs after 60 min.", "setting": "[4]", "result": 8, "unit": "%"}, {"measurement": "% of Propofol Released from Propofol Prodrugs after 60 min.", "setting": "[5]", "result": 14, "unit": "%"}, {"measurement": "% of Propofol Released from Propofol Prodrugs after 60 min.", "setting": "[6]", "result": 8, "unit": "%"}]}, {"compound": "CC(C)c1cccc(C(C)C)c1OC(=O)C[C@H](NC(=O)[C@H](C)N)C(=O)O", "note": "[Compound 107, H-Ala-Asp(OPropofol)-OH]", "values": [{"measurement": "% of Propofol Released from Propofol Prodrugs after 60 min.", "setting": "[1]", "result": 4, "unit": "%"}, {"measurement": "% of Propofol Released from Propofol Prodrugs after 60 min.", "setting": "[2]", "result": 1, "unit": "%"}, {"measurement": "% of Propofol Released from Propofol Prodrugs after 60 min.", "setting": "[3]", "result": 3, "unit": "%"}, {"measurement": "% of Propofol Released from Propofol Prodrugs after 60 min.", "setting": "[4]", "result": 7, "unit": "%"}, {"measurement": "% of Propofol Released from Propofol Prodrugs after 60 min.", "setting": "[5]", "result": 5, "unit": "%"}, {"measurement": "% of Propofol Released from Propofol Prodrugs after 60 min.", "setting": "[6]", "result": 6, "unit": "%"}]}, {"compound": "CC(C)c1cccc(C(C)C)c1OC(=O)C[C@H](NC(=O)[C@@H](N)Cc1ccc(O)cc1)C(=O)O", "note": "[Compound 122, H-Tyr-Asp(OPropofol)-OH]", "values": [{"measurement": "% of Propofol Released from Propofol Prodrugs after 60 min.", "setting": "[1]", "result": 0, "unit": "%"}, {"measurement": "% of Propofol Released from Propofol Prodrugs after 60 min.", "setting": "[2]", "result": 0, "unit": "%"}, {"measurement": "% of Propofol Released from Propofol Prodrugs after 60 min.", "setting": "[3]", "result": 2, "unit": "%"}, {"measurement": "% of Propofol Released from Propofol Prodrugs after 60 min.", "setting": "[4]", "result": 10, "unit": "%"}, {"measurement": "% of Propofol Released from Propofol Prodrugs after 60 min.", "setting": "[5]", "result": 6, "unit": "%"}, {"measurement": "% of Propofol Released from Propofol Prodrugs after 60 min.", "setting": "[6]", "result": 9, "unit": "%"}]}, {"compound": "H-Asp-Asp(OCH2OPropofol)-OH [Compound 220]", "values": [{"measurement": "% of Propofol Released from Propofol Prodrugs after 60 min.", "setting": "[1]", "result": 49, "unit": "%"}, {"measurement": "% of Propofol Released from Propofol Prodrugs after 60 min.", "setting": "[2]", "result": 1, "unit": "%"}, {"measurement": "% of Propofol Released from Propofol Prodrugs after 60 min.", "setting": "[4]", "result": 6, "unit": "%"}, {"measurement": "% of Propofol Released from Propofol Prodrugs after 60 min.", "setting": "[5]", "result": 0, "unit": "%"}]}, {"compound": "H-Gly-Tyr-OPropofol [Compound 192]", "values": [{"measurement": "% of Propofol Released from Propofol Prodrugs after 60 min.", "setting": "[1]", "result": 41, "unit": "%"}, {"measurement": "% of Propofol Released from Propofol Prodrugs after 60 min.", "setting": "[2]", "result": 15, "unit": "%"}, {"measurement": "% of Propofol Released from Propofol Prodrugs after 60 min.", "setting": "[3]", "result": 15, "unit": "%"}, {"measurement": "% of Propofol Released from Propofol Prodrugs after 60 min.", "setting": "[4]", "result": 0, "unit": "%"}, {"measurement": "% of Propofol Released from Propofol Prodrugs after 60 min.", "setting": "[5]", "result": 60, "unit": "%"}, {"measurement": "% of Propofol Released from Propofol Prodrugs after 60 min.", "setting": "[6]", "result": 60, "unit": "%"}]}, {"compound": "CSCC[C@H](N)C(=O)N[C@@H](CC(=O)Oc1c(C(C)C)cccc1C(C)C)C(=O)O", "note": "[Compound 121, H-Met-Asp(OPropofol)-OH]", "values": [{"measurement": "% of Propofol Released from Propofol Prodrugs after 60 min.", "setting": "[1]", "result": 0, "unit": "%"}, {"measurement": "% of Propofol Released from Propofol Prodrugs after 60 min.", "setting": "[2]", "result": 3, "unit": "%"}, {"measurement": "% of Propofol Released from Propofol Prodrugs after 60 min.", "setting": "[3]", "result": 7, "unit": "%"}, {"measurement": "% of Propofol Released from Propofol Prodrugs after 60 min.", "setting": "[4]", "result": 0, "unit": "%"}, {"measurement": "% of Propofol Released from Propofol Prodrugs after 60 min.", "setting": "[5]", "result": 0, "unit": "%"}, {"measurement": "% of Propofol Released from Propofol Prodrugs after 60 min.", "setting": "[6]", "result": 0, "unit": "%"}]}, {"compound": "CC(C)c1cccc(C(C)C)c1OC(=O)CC[C@H](NC(=O)[C@@H](N)CC(N)=O)C(=O)O", "note": "[Compound 124, H-Asn-Glu(OPropofol)-OH]", "values": [{"measurement": "% of Propofol Released from Propofol Prodrugs after 60 min.", "setting": "[1]", "result": 0, "unit": "%"}, {"measurement": "% of Propofol Released from Propofol Prodrugs after 60 min.", "setting": "[2]", "result": 2, "unit": "%"}, {"measurement": "% of Propofol Released from Propofol Prodrugs after 60 min.", "setting": "[3]", "result": 65, "unit": "%"}, {"measurement": "% of Propofol Released from Propofol Prodrugs after 60 min.", "setting": "[4]", "result": 4, "unit": "%"}, {"measurement": "% of Propofol Released from Propofol Prodrugs after 60 min.", "setting": "[5]", "result": 0, "unit": "%"}, {"measurement": "% of Propofol Released from Propofol Prodrugs after 60 min.", "setting": "[6]", "result": 0, "unit": "%"}]}, {"compound": "CC(C)c1cccc(C(C)C)c1O", "note": "[Propofol, 2,6-diisopropylphenol]", "values": [{"measurement": "bioavailability", "setting": "[7]", "result": 0.23, "unit": "%"}, {"measurement": "administered drug undergoing first pass metabolism", "setting": "[8]", "result": "approximately 90%"}]}]}
